Row | melting point [°C] | SMILES
1 | 230 to 232 | CC(C)(C)OC(=O)N1CCc2cc(NC(=O)NCc3ccc4c(c3)CN(C3CCC(=O)NC3=O)C4=O)ccc2C1 (stereo not drawn) [Example 5.46, 6-{3-[2-(2,6-Dioxo-piperidin-3-yl)-1-oxo-2,3-dihydro-1H-isoindol-5-ylmethyl]-ureido}-3,4-dihydro-1H-isoquinoline-2-carboxylic acid tert-butyl ester]
2 | 275 to 277 | O=C1CCC(N2Cc3cc(CNC(=O)Nc4ccc(Cl)c(-c5nc6ccccc6[nH]5)c4)ccc3C2=O)C(=O)N1 (stereo not drawn) [Example 5.32, 1-[3-(1H-Benzoimidazol-2-yl)-4-chloro-phenyl]-3-[2-(2,6-dioxo-piperidin-3-yl)-1-oxo-2,3-dihydro-1H-isoindol-5-ylmethyl]-urea]
3 | 265 to 267 | CC(=O)Nc1ccc(NC(=O)NCc2ccc3c(c2)CN(C2CCC(=O)NC2=O)C3=O)cc1 (stereo not drawn) [Example 5.13, N-(4-{3-[2-(2,6-Dioxo-piperidin-3-yl)-1-oxo-2,3-dihydro-1H-isoindol-5-ylmethyl]-ureido}-phenyl)-acetamide]
4 | 195 to 197 | NC(=O)[C@H]1CC[C@@H](NC(=O)NCc2ccc3c(c2)CN(C2CCC(=O)NC2=O)C3=O)CC1 (stereo partly drawn) [Example 5.43, 4-{3-[2-(2,6-Dioxo-piperidin-3-yl)-1-oxo-2,3-dihydro-1H-isoindol-5-ylmethyl]-ureido}-cyclohexanecarboxylic acid amide]
5 | 325 to 327 | Cc1ccc(N/C(=N\C#N)NCc2ccc3c(c2)CN(C2CCC(=O)NC2=O)C3=O)cc1Cl (stereo not drawn) [Example 5.30, N″-(3-Chloro-4-methyl-phenyl)-N′-[2-(2,6-dioxo-piperidin-3-yl)-1-oxo-2,3-dihydro-1H-isoindol-5-ylmethyl]-N-cyano-guanidine]
6 | 190 to 192 | O=C1CCC(N2Cc3cc(CNC(=O)Nc4ccc(-c5ncc[nH]5)cc4)ccc3C2=O)C(=O)N1 (stereo not drawn) [Example 5.31, 1-[2-(2,6-Dioxo-piperidin-3-yl)-1-oxo-2,3-dihydro-1H-isoindol-5-ylmethyl]-3-[4-(1H-imidazol-2-yl)-phenyl]-urea]
7 | > 400 | Cc1ccc(NC(=N)NCc2ccc3c(c2)CN(C2CCC(=O)NC2=O)C3=O)cc1Cl.Cl (stereo not drawn)
8 | 188 to 190 | COCCOCCOc1ccc(NC(=O)NCc2ccc3c(c2)CN(C2CCC(=O)NC2=O)C3=O)cc1Cl (stereo not drawn) [Example 5.61, 1-(3-Chloro-4-(2-(2-methoxyethoxy)ethoxy)phenyl)-3-((2-(2,6-dioxopiperidin-3-yl)-1-oxoisoindolin-5-yl)methyl)urea]
9 | 200 to 202 | CC(NC(=O)NCc1ccc2c(c1)CN(C1CCC(=O)NC1=O)C2=O)c1ccc(Cl)c(Cl)c1 (stereo not drawn) [Example 5.60, 1-[1-(3,4-Dichloro-phenyl)-ethyl]-3-[2-(2,6-dioxo-piperidin-3-yl)-1-oxo-2,3-dihydro-1H-isoindol-5-ylmethyl]-urea]

— patent publication US8318773B2, “Isoindoline compounds and methods of their use” (Celgene Corporation, priority 2008, dated 2012)
